{
  "source": "patent US20160075991A1",
  "about": "“Process for Preparing Starter Cultures of Lactic Acid Bacteria” (INSTITUT NATIONAL DE LA RECHERCHE, priority 1998, published 2016)",
  "key": {"[1]": {"tested_on": "Lactococcus lactis subsp. cremoris strain MG1363", "test": "Culturing in the presence of hemin with aeration (Example 1.1)", "format": "cell-based", "conditions": "for pH: final pH of medium; for pH / OD600 nm / Viable bacterial count / Concentration of lactic acid: hemin 10 μg/ml, aeration, 24 h", "procedure": "A laboratory medium (M17 supplemented with glucose in amounts, as indicated in the Table I, lactose being also usable) is inoculated with the Lactococcus lactic subsp. cremoris strain MG1363 in the form of a 1/100 or 1/1000 dilution of a saturated culture (prepared at 30° C. with no shaking). The inoculated medium contained or not hemin at a final concentration of 10 μg/ml (a 0.5 mg/ml stock solution is prepared by dissolving 100 mg of hemin in 2 ml of 5N NaOH, to which 198 ml of water is then added; the solution is autoclaved at 120° C. for 20 minutes). For bacteria grown in medium containing hemin, cultures were maintained at 30° C. with shaking (250 rotations per minute) in order to ensure oxygenation. Control cultures, without addition of hemin and without shaking, were grown at 30° C. in parallel. After 24 h of growth, aliquots are removed to measure the optical density at 600 nm (OD600 nm), the number of viable bacteria, the final pH and the concentration of lactic acid in the medium."}, "[2]": {"tested_on": "Lactococcus lactis subsp. cremoris strain MG1363", "test": "Survival of the lactic acid bacteria during storage at 4° C. (Example 3)", "format": "cell-based", "conditions": "for Number of cells per ml: porphyrin compound and aeration, 1% glucose M17, storage at 4° C.", "procedure": "(§1) A laboratory medium, i.e. M17 supplemented with 1% of glucose, is inoculated with Lactococcus lactis subsp. cremoris strain MG1363 in the form of a 1/1000 dilution of a saturated culture. The cultures are then divided into two equal parts, and hemin is added to one of these two cultures to give a final concentration of 10 μg/ml. […] Aliquots of the two cultures are removed regularly during the exponential growth phase in order to monitor viability, rate of growth and pH. After 24 h of growth, the cultures are placed (stored) in a 30° C. incubator without shaking, and aliquots are removed every 24 h in order to monitor the viability of the cells. The Lactococcus lactis subsp. cremoris strain MG1363 was cultured as in the experiment described in Example 2, but the storage, which is carried out 24 h after inoculation, is at 4° C. instead of at 30° C."}, "[3]": {"tested_on": "Lactococcus lactis subsp. cremoris strain MG1363", "test": "Survival of the lactic acid bacteria during storage at 30° C. (Example 2)", "format": "cell-based", "conditions": "for Number of viable cells: hemin 10 μg/ml and aeration, 1% glucose M17", "procedure": "as §1, with “cells.” for “cells. The Lactococcus lactis subsp. cremoris strain MG1363 was cultured as in the experiment described in Example 2, but the storage, which is carried out 24 h after inoculation, is at 4° C. instead of at 30° C.”"}, "Z106": {"tested_on": "Z106", "test": "Culture with hemin and agitation, different strains (Example 4)", "format": "cell-based, L. lactis", "conditions": "strain Z106, hemin 10 μg/ml and agitation, M17 1% glucose, 24 h", "procedure": "Bacteria [MG1363 and 7 strains (IL1403, IL582, IL801, IL896, Z105, Z106, Z191) representative of L. lactis subgroups [TAILLEZ et al., System. Appl. Microbiol., 21, 530-538, (1998)] are cultured in M17 medium (1% glucose) inoculated (1/1000 dilution) with a saturated starter culture previously grown at 30° C. for 24 h. Hemin at a final concentration of 10 μg/ml is added to the inoculated medium before aerating the cultures by shaking (minimum 220 rpm). Control cultures are grown in parallel with no hemin in the medium, and no shaking. After 24 h., aliquots are taken and OD600 and final pH are measured."}, "[4]": {"conditions": "glucose 5 g/l, dilution factor 100"}, "[5]": {"conditions": "glucose 5 g/l, dilution factor 1000"}, "[6]": {"conditions": "glucose 6 g/l, dilution factor 100"}, "[7]": {"conditions": "glucose 6 g/l, dilution factor 1000"}, "[8]": {"conditions": "glucose 7 g/l, dilution factor 100"}, "[9]": {"conditions": "glucose 7 g/l, dilution factor 1000"}, "[10]": {"conditions": "glucose 8 g/l, dilution factor 100"}, "[11]": {"conditions": "glucose 8 g/l, dilution factor 1000"}, "[12]": {"conditions": "glucose 9 g/l, dilution factor 100"}, "[13]": {"conditions": "glucose 9 g/l, dilution factor 1000"}, "[14]": {"conditions": "glucose 10 g/l, dilution factor 100"}, "[15]": {"conditions": "glucose 10 g/l, dilution factor 1000"}},
  "data": [
    {"compound": "C=CC1=C(C)c2cc3[n-]c(cc4nc(cc5[n-]c(cc1n2)c(C)c5C=C)C(C)=C4CCC(=O)O)c(CCC(=O)O)c3C.[Cl-].[Fe+3]", "note": "[hemin]", "values": [
      {"measurement": "production of lactic acid as share of the quantity of sugar added", "setting": "[1]; cells cultured in the presence of hemin and oxygen", "value": "less than 10%"},
      {"measurement": "pH", "setting": "[1]; [4]", "value": 6.2},
      {"measurement": "pH", "setting": "[1]; [5]", "value": 6.19},
      {"measurement": "pH", "setting": "[1]; [6]", "value": 6.25},
      {"measurement": "pH", "setting": "[1]; [7]", "value": 6.13},
      {"measurement": "pH", "setting": "[1]; [8]", "value": 6.09},
      {"measurement": "pH", "setting": "[1]; [9]", "value": 6.07},
      {"measurement": "pH", "setting": "[1]; [10]", "value": 6.04},
      {"measurement": "pH", "setting": "[1]; [11]", "value": 6.03},
      {"measurement": "pH", "setting": "[1]; [12]", "value": 6.02},
      {"measurement": "pH", "setting": "[1]; [13]", "value": 6.01},
      {"measurement": "pH", "setting": "[1]; [14]", "value": 6.01},
      {"measurement": "pH", "setting": "[1]; [15]", "value": 5.99},
      {"measurement": "OD600 nm", "setting": "[1]; [4]", "value": 4.6},
      {"measurement": "Viable bacterial count", "setting": "[1]; [4]", "value": "5.7 ×10^9"},
      {"measurement": "Concentration of lactic acid", "setting": "[1]; [5]", "value": 0.12, "unit": "g/L"},
      {"measurement": "OD600 nm", "setting": "[1]; [5]", "value": 4.5},
      {"measurement": "Viable bacterial count", "setting": "[1]; [5]", "value": "5.7 ×10^9"},
      {"measurement": "OD600 nm", "setting": "[1]; [6]", "value": 5.1},
      {"measurement": "Viable bacterial count", "setting": "[1]; [6]", "value": "6 ×10^9"},
      {"measurement": "Concentration of lactic acid", "setting": "[1]; [7]", "value": 0.14, "unit": "g/L"},
      {"measurement": "OD600 nm", "setting": "[1]; [7]", "value": 5.5},
      {"measurement": "Viable bacterial count", "setting": "[1]; [7]", "value": "7.6 ×10^9"},
      {"measurement": "OD600 nm", "setting": "[1]; [8]", "value": 5.6},
      {"measurement": "Viable bacterial count", "setting": "[1]; [8]", "value": "9.1 ×10^9"},
      {"measurement": "Concentration of lactic acid", "setting": "[1]; [9]", "value": 0.19, "unit": "g/L"},
      {"measurement": "OD600 nm", "setting": "[1]; [9]", "value": 5.7},
      {"measurement": "Viable bacterial count", "setting": "[1]; [9]", "value": "8.6 ×10^9"},
      {"measurement": "OD600 nm", "setting": "[1]; [10]", "value": 5.9},
      {"measurement": "Viable bacterial count", "setting": "[1]; [10]", "value": "8.9 ×10^9"},
      {"measurement": "Concentration of lactic acid", "setting": "[1]; [11]", "value": 0.35, "unit": "g/L"},
      {"measurement": "OD600 nm", "setting": "[1]; [11]", "value": 5.4},
      {"measurement": "Viable bacterial count", "setting": "[1]; [11]", "value": "9.3 ×10^9"},
      {"measurement": "OD600 nm", "setting": "[1]; [12]", "value": 5.9},
      {"measurement": "Viable bacterial count", "setting": "[1]; [12]", "value": "9.2 ×10^9"},
      {"measurement": "Concentration of lactic acid", "setting": "[1]; [13]", "value": 0.52, "unit": "g/L"},
      {"measurement": "OD600 nm", "setting": "[1]; [13]", "value": 5.8},
      {"measurement": "Viable bacterial count", "setting": "[1]; [13]", "value": "9.4 ×10^9"},
      {"measurement": "OD600 nm", "setting": "[1]; [14]", "value": 6.1},
      {"measurement": "Viable bacterial count", "setting": "[1]; [14]", "value": "10.1 ×10^9"},
      {"measurement": "Concentration of lactic acid", "setting": "[1]; [15]", "value": 0.98, "unit": "g/L"},
      {"measurement": "OD600 nm", "setting": "[1]; [15]", "value": 6.2},
      {"measurement": "Viable bacterial count", "setting": "[1]; [15]", "value": "9.6 ×10^9"},
      {"measurement": "pH of the culture (remains stable)", "setting": "[1]; hemin and oxygen, whatever the concentration of glucose", "value": "approximately 6.1"},
      {"measurement": "survival rate", "setting": "[2]; after 2 months at 4° C., cultured with porphyrin compound under aeration", "value": "~5", "unit": "%"},
      {"measurement": "Number of cells per ml", "setting": "[2]; 0 days after culture", "value": "4.3 × 10^9 cells per ml"},
      {"measurement": "Number of cells per ml", "setting": "[2]; 1 day after culture", "value": "4.2 × 10^9 cells per ml"},
      {"measurement": "Number of cells per ml", "setting": "[2]; 2 days after culture", "value": "3.8 × 10^9 cells per ml"},
      {"measurement": "Number of cells per ml", "setting": "[2]; 3 days after culture", "value": "3.8 × 10^9 cells per ml"},
      {"measurement": "Number of cells per ml", "setting": "[2]; 7 days after culture", "value": "4.2 × 10^9 cells per ml"},
      {"measurement": "Number of cells per ml", "setting": "[2]; 8 days after culture", "value": "2.8 × 10^9 cells per ml"},
      {"measurement": "Number of cells per ml", "setting": "[2]; 9 days after culture", "value": "2.2 × 10^9 cells per ml"},
      {"measurement": "Number of cells per ml", "setting": "[2]; 10 days after culture", "value": "9.6 × 10^8 cells per ml"},
      {"measurement": "Number of cells per ml", "setting": "[2]; 13 days after culture", "value": "5.0 × 10^8 cells per ml"},
      {"measurement": "Number of cells per ml", "setting": "[2]; 15 days after culture", "value": "3.2 × 10^8 cells per ml"},
      {"measurement": "Number of cells per ml", "setting": "[2]; 22 days after culture", "value": "3.0 × 10^8 cells per ml"},
      {"measurement": "Number of cells per ml", "setting": "[2]; 28 days after culture", "value": "3.0 × 10^8 cells per ml"},
      {"measurement": "Number of cells per ml", "setting": "[2]; 36 days after culture", "value": "2.9 × 10^8 cells per ml"},
      {"measurement": "Number of cells per ml", "setting": "[2]; 43 days after culture", "value": "2.2 × 10^8 cells per ml"},
      {"measurement": "Number of cells per ml", "setting": "[2]; 50 days after culture", "value": "1.8 × 10^8 cells per ml"},
      {"measurement": "Number of cells per ml", "setting": "[2]; 57 days after culture", "value": "2.0 × 10^8 cells per ml"},
      {"measurement": "viability after one day of storage", "setting": "[3]; 2 days after inoculation, storage at 30° C., hemin and oxygen", "value": "do not lose any viability"},
      {"measurement": "rate of survival", "setting": "[3]; after 5 days of storage at 30° C., grown with aeration and hemin", "value": "approximately 10^−2"},
      {"measurement": "Number of viable cells", "setting": "[3]; 0 days after inoculation", "value": "1 × 10^6"},
      {"measurement": "Number of viable cells", "setting": "[3]; 1 day after inoculation", "value": "1.76 × 10^10"},
      {"measurement": "Number of viable cells", "setting": "[3]; 2 days after inoculation, stored at 30° C.", "value": "1.71 × 10^10"},
      {"measurement": "Number of viable cells", "setting": "[3]; 3 days after inoculation, stored at 30° C.", "value": "5.32 × 10^9"},
      {"measurement": "Number of viable cells", "setting": "[3]; 5 days after inoculation, stored at 30° C.", "value": "4.3 × 10^8"},
      {"measurement": "Number of viable cells", "setting": "[3]; 6 days after inoculation, stored at 30° C.", "value": "8.5 × 10^7"},
      {"measurement": "pH", "setting": "Z106; final pH", "value": 5.74},
      {"measurement": "OD500 nm", "setting": "Z106", "value": 4.5}
    ]}
  ]
}
